This note sets out measurements from patent publication US20160339094A1, “BACTERIAL INFLUENCE OF HOST FEEDING AND EMOTION VIA CLPB PROTEIN MIMICRY OF A-MSH” (priority 2013, published 2016).

In series [1] the test system is C57B16 mice. The experiment in a line: ClpB immunization in mice: plasma ClpB-, α-MSH- and ACTH-reactive autoantibody ELISA. The format is in vivo. A general note: In an ELISA, binding on a coated surface is turned into a signal by an enzyme label.
Protocol: Two month-old male C57B16 mice (Janvier Labs L'Arbresle, France) were acclimated to the animal facility for with 12 h light-dark cycle, lights on at 7:00 a.m. and were kept in standard mouse holding cages (n=8) in each. […] During acclimatization mice were distributed between four cages to obtain the similar mean body weight per mouse per cage. After one week of acclimatization, mice from each cage were assigned to one of four study group and received following treatments: i) Group 1, ClpB immunization (n=8): ClpB protein (Delphi Genetics) 50 μg/mouse in 200 μl of 1:1 vol. of PBS with Complete Freund's Adjuvant (CFA, Sigma), intraperitoneally (I.P.); ii) Group 2, adjuvant injection controls (n=8): 200 μl of CFA in PBS (1:1 vol., I.P.); iii) Group 3, PBS injection controls (n=8): 200 μl of PBS (I.P.) and iiii) Group 4, Intact controls (n=8): received no injections, and then all mice were returned to their holding cages. Fifteen days later, mice were given a boost immunization and the following treatments: i) Group 1 (n=8), ClpB protein (Delphi Genetics) 50 μg/mouse in 200 μl of 1:1 vol. of PBS with Incomplete Freund's Adjuvant (IFA, Sigma) I.P.; ii) Group 2 (n=8): 200 ═l of IFA in PBS (1:1 vol., I.P.); iii) Group 3, (n=8): 200 ═l of PBS (I.P.) and iiii) Group 4, (n=8): received no injections.
Two hours after the O-maze test, mice were killed by decapitation in a guillotine and trunk blood was collected into EDTA-containing tubes. Plasma was separated by centrifugation at 3,500 r.p.m. (1.4 g) for 10 min at 4° C. and stored at −80° C. before assay.
Plates were washed (5 min×3) in phosphate-buffered saline (PBS) with 0.05% Tween 200, pH 7.4, and then incubated overnight at 4° C. with 100 μl of mouse or rat plasma diluted 1:200 in PBS to determine free autoAbs levels or diluted 1:200 in dissociative 3 M NaCl, 1.5 M glycine buffer, pH 8.9 to determine total autoAbs levels. The plates were washed (3×) and incubated with 100 μl of alkaline phosphatase (AP)-conjugated goat anti-rat IgG (1:2000), anti-rat IgM (1:1000), anti-mouse IgG (1:2000), or anti-mouse IgM (1:1000) all from Jackson ImmunoResearch Laboratories, Inc. (West Grove, Pa.). Following washing (3×), 100 μl of p-nitrophenyl phosphate solution (Sigma) was added as alkaline phosphatase substrate. After 40 min of incubation at room temperature, the reaction was stopped by adding 3N NaOH. The OD was determined at 405 nm using a microplate reader Metertech 960 (Metertech Inc., Taipei, Taiwan). Blank OD values resulting from the reading of plates without addition of plasma samples were subtracted from the sample OD values. Each determination was done in duplicate. The variation between duplicate values was less than 5%.
Series [2] has as its target ClpB (Escherichia coli, UniProt P63284). The note with it: plasma extracted IgG of ClpB immunized mice vs other groups; SPR. The procedure: (§1) Extraction of plasma globulins was done by plasma acidification and separation on C-18 SEP column (Phoenix Pharmaceuticals, Burlingame, Calif.) according to the manufacturer instructions. In detail, 500 μl of mouse or rat plasma was mixed with 500 μl of buffer A (1% trifluoroacetic acid TFA in water). The column was activated in 1 ml of buffer B (60% acetonitrile in 1% TFA) by 3 min centrifugation with 700 rpm and rinsed 3 times with 3 ml of buffer A. Diluted plasma (1:1 in buffer A) was added to the column and the effluent (1 ml) was saved (frozen at −20° C.) for further purification of IgG. Total IgG were purified from the effluents of rat plasma samples using the Melon Gel Kit (Thermo Fisher Scientific, Rockford, Ill.) according to the manufacturer instructions. In brief, plasma effluents diluted 1:4 in kit's purification buffer was added on washed melon gel deposited in a column. Column was spinned 1 min at 6,000 r.p.m. and the IgG containing effluent was saved and frozen at −20° C. before lyophilization. Lyophilized IgG were reconstituted in the HBS-EP buffer (GE Healthcare, Piscataway, N.J.).
(§2) For the affinity kinetic analysis, a multi-cycle method was run with five serial dilutions of each IgG sample: 3360, 1680, 840, 420 and 210 (nmol) including a duplicate of 840 nmol and a blank sample (HBS-EP buffer only).

The target of series [3] is α-MSH (Homo sapiens, UniProt P01189). Conditions: IgG of ClpB immunized mice vs controls; SPR. The procedure: as §1, §2
The subject of series [4] is C57B16 mice. The experiment in a line: ClpB immunization in mice: body weight, food intake and feeding pattern (BioDAQ cages). The class given is in vivo. As to the method:
Animal care and experimentation were in accordance with guidelines established by the National Institutes of Health, USA and complied with both French and European Community regulations (Official Journal of the European Community L 358, 18 Dec. 1986). Two month-old male C57B16 mice (Janvier Labs L'Arbresle, France) were acclimated to the animal facility for with 12 h light-dark cycle, lights on at 7:00 a.m. and were kept in standard mouse holding cages (n=8) in each. Mice were fed ad libitum with standard pelleted rodent chow (RM1 diet, SDS, UK) with drinking water always available and were manipulated daily by gentle holding and measuring body weight. During acclimatization mice were distributed between four cages to obtain the similar mean body weight per mouse per cage. After one week of acclimatization, mice from each cage were assigned to one of four study group and received following treatments: i) Group 1, ClpB immunization (n=8): ClpB protein (Delphi Genetics) 50 μg/mouse in 200 μl of 1:1 vol. of PBS with Complete Freund's Adjuvant (CFA, Sigma), intraperitoneally (I.P.); ii) Group 2, adjuvant injection controls (n=8): 200 μl of CFA in PBS (1:1 vol., I.P.); iii) Group 3, PBS injection controls (n=8): 200 μl of PBS (I.P.) and iiii) Group 4, Intact controls (n=8): received no injections, and then all mice were returned to their holding cages. Fifteen days later, mice were given a boost immunization and the following treatments: i) Group 1 (n=8), ClpB protein (Delphi Genetics) 50 μg/mouse in 200 μl of 1:1 vol. of PBS with Incomplete Freund's Adjuvant (IFA, Sigma) I.P.; ii) Group 2 (n=8): 200 ═l of IFA in PBS (1:1 vol., I.P.); iii) Group 3, (n=8): 200 ═l of PBS (I.P.) and iiii) Group 4, (n=8): received no injections.
Next day after the boost, mice were placed individually in the BioDAQ mouse cages (Research Diets, Inc., New Brunswick, N.J.) each equipped with an automatic feeding monitor. Food (SERLAB, Montataire France) and drinking water were available ad libitum and body weight was measured daily. After three days of acclimation to the BioDAQ cages, mice received the following treatments: Groups 1, 2 and 3 (each n=8) i.e. mice which have been immunized with ClpB; injected with adjuvants and with PBS, respectively, […] PBS (I.P.) at 10 a.m. The control mice (n=8) received PBS only (I.P.). Feeding data was continuously monitored and analysed using the BioDAQ data viewer 2.3.07 (Research Diets). For the meal pattern analysis, the inter-meal interval was set at 300 sec.

Series [5] has as its system C57B16 mice. In words: Locomotor activity and anxiety tests (open field, elevated O-maze) in immunized mice. The class given is in vivo. As to the method:
After the feeding study, mice were placed in individual mouse holding cages with food and water available ad libitum and were analyzed for locomotor activity and anxiety in O-maze tests performed during two consecutive days. Two hours after the O-maze test, mice were killed by decapitation in a guillotine and trunk blood was collected into EDTA-containing tubes. Plasma was separated by centrifugation at 3,500 r.p.m. ([…]) for 10 min at 4° C. and stored at −80° C. before assay.
After feeding study in the BioDAQ cages, mice were analyzed for locomotor activity using a Versamax Animal Activity Monitor (AccuScan Instruments, Inc., Columbus, Ohio). Next day after the locomotor activity test all mice were tested for their anxiety in an elevated-O-maze. The elevated-O-maze is a variation of more commonly used elevated-plus-maze pharmacologically validated for anxiety testing in rodents (Crawley, J. N. and Bailey, K. R., Methods of behavior analysis in neuroscience, 77-101 (CRC Press, 2009)). The advantage of the O-maze is that it lacks the ambiguous central square of the traditional plus-maze. The O-maze (Med Associate, Inc., St. Albans, Vt.) consisted of a circular infrared platform (outer diameter 120 cm) elevated 80 cm above the floor, featuring two open and two closed segments made of grey plastic. The closed segments were enclosed by walls extending 20 cm above the surface of the maze and covered with a black infrared Plexiglas lid. Each test started by placing the mouse into one of the two closed segments. The test lasted 5 min and was recorded using a video-camera placed above the O-maze and the EthoVision video tracking software (Noldus IT, Wageningen, The Netherlands). Measurements of distance and time spent in the open and closed segments were analyzed. Between each mouse tests, the O-maze was cleaned with a 30% alcohol.

Series [6] relates to polyclonal rabbit anti-α-MSH antisera. The procedure:
Following 2D-PAGE, E. coli cytoplasmic proteins were transferred onto Hybond-ECL PVDF membrane (GE Healthcare) by using a dry transfer method (Trans Blot Cell, Biorad, USA) and a constant current of 0.8 mA/cm^2 of the membrane size for 2 h. After transfer, membranes were blocked with 5% (wt:v) milk (Regilait, France) in phosphate buffered saline (PBS; 10 mmol/L […], pH 8; 150 mmol/L NaCl) plus 0.05% (v:v) Tween 20.
The recombinant ClpB protein was customly produced by Delphi Genetics SA, (Gosselies, Belgium) in bacterial cultures by the ClpB cDNA synthesis and cloning into an expression vector.

Setting [7] is: day 22, single injection of α-MSH 100 μg/kg body weight, I.P., non-immunized vs ClpB-immunized vs controls.

ClpB, sequence (P63284 whole entry): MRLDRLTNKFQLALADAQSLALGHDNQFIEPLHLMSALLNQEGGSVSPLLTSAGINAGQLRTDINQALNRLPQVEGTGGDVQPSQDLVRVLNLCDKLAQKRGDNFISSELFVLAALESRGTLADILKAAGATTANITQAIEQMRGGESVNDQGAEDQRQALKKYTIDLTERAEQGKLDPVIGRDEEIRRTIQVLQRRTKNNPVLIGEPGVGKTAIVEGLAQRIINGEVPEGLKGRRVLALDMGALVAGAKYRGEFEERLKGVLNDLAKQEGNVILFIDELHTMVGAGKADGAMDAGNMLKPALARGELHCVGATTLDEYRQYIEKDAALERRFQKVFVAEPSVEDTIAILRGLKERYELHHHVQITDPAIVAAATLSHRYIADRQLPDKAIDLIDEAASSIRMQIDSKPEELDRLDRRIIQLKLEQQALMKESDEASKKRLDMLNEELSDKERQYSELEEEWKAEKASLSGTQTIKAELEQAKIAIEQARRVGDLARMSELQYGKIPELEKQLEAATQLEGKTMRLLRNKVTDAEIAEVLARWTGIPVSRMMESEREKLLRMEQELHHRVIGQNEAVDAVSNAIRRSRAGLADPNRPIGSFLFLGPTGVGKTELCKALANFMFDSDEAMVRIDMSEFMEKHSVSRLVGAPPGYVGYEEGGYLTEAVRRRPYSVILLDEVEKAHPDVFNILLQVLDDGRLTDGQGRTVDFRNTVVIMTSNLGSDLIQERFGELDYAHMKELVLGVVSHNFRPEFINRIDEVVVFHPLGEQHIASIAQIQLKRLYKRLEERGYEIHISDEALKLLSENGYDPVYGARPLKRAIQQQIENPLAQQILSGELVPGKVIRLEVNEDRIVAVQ

In the case of “ClpB: recombinant 857 amino acid chaperone protein ClpB of E. coli K12 (SEQ ID NO: 1), injected I.P. with Freund's adjuvant for immunization”, the “plasma levels of α-MSH-reactive IgG” value in series [1] (ClpB immunized mice) is “Increased plasma levels”. The “plasma levels of ClpB IgG” value in series [1] (ClpB immunized mice vs other groups (adjuvant, PBS, controls)) was “higher plasma levels”. Moreover, in series [1] (among the groups), the “plasma ACTH-reactive IgG” value is given as “No significant differences”. Also, in series [1] (between the groups), the “plasma levels of α-MSH IgM autoAbs” value is reported as “did not significantly differ”. For the same substance, in series [2], the “affinity of anti-ClpB IgG for ClpB” value is “lower affinities”. The “affinity of IgG for α-MSH” value in series [3] is “lower affinities for α-MSH”. Also, the meal number entry in series [4] (BioDAQ) is listed as “did not change”. Further, in series [4] (BioDAQ, last 10 days), the meal size result was “increased meal size”. Moreover, in series [4] (BioDAQ, last 10 days of the experiment), the “higher mean daily food intake as compared to other groups” value is listed as 13%. The “body weight for few days after injections” value in series [4] (ClpB and CFA, I.P., expected inflammatory response to immunization) is “lower body weight”. The “higher body weight vs. controls at the end of the experiment” value in series [4] (ClpB immunized mice, 32 days study) was found to be 5%. Further, in series [4] (setting [7]), the “24 h food intake following α-MSH injection” value is on record as “did not differ from controls” and the “body weight 24 h following α-MSH injection” value is recorded as “did not differ from controls”. In addition, the “parameters in the O-maze open arms” value in series [5] (ClpB group) is on record as “did not significantly change”. Moreover, the “time spent in the closed arms of the O-maze” value in series [5] (ClpB-immunized mice vs all other groups) is “less time”. Besides, the “distance moved in the closed arms of the O-maze” value in series [5] (ClpB-immunized mice vs controls) is “shorter distance”. In series [5] (open field, among the groups), the “time spent in the open vs. border areas” value is on record as “did not significantly differ” and the total locomotor activity result is on record as “did not significantly differ”. Moreover, the “Western blot detection by anti-α-MSH antiserum after trypsin digestion” value in series [6] (ClpB digested by trypsin) is “No band was detected”. Further, the “Western blot detection by anti-α-MSH antiserum” value in series [6] (intact recombinant ClpB) is listed as “single 96 kDa band”.
